Laboratory results as given in patent publication US20100080843A1, “Natural and synthetic sulfur and selenium analogs and polymer conjugated forms thereof for the modulation of angiogenesis” (The Research Foundation of the State University Of New York …, priority 2005, published 2010).
Values joined by “and” are separate entries in the source; they are usually repeats but may differ in a detail not shown here. Identical values can stand only once.

Legend:
[1] = system: FGF2-induced angiogenesis in chick chorioalloantoic membranes; assay: Neovascularization in the Chick Chorioalloantoic Membrane (CAM), FGF2-stimulated CAM Model; format: in vivo; conditions: for inhibition at 10 µM: Gallus gallus, FGF2 + analog, 10 uM (Table 4), read-out: % inhibition ± SEM Branch point in CAM; for Branch Points ± SEM: CAM; for % inhibition ± SEM: CAM branch points (Table 3)
Procedure: In vivo neovascularization was examined by the method previously described by Auerbach et al. (Auerbach et al., J. Dev. Biol., 41:391-394 (1974), which is hereby incorporated by reference in its entirety). Ten-day old embryos were purchased from Spafas, Inc. (Preston, Conn.) and were incubated at 37° C. with 55% relative humidity. In the dark with the help of a candling lamp, a small hole was punctured in the shell concealing the air sac with a hypodermic needle. A second hole was punctured, in the shell on the broadside of the egg directly over an avascular portion of the embryonic membrane, as observed during candling. A false air sac was created beneath the second hole by the application of negative pressure to the first hole, which caused the chorioallantoic membrane (CAM) to separate from the shell. A window, approximately 1.0 cm^2, was cut in the shell over the dropped CAM with the use of a small crafts grinding wheel (Dremel, Division of Emerson Electric Company Racine, Wis.), which allowed direct, access to the underlying CAM. Filter disks of #1 filter paper (Whatman International, United Kingdom) were soaked in 3 mg/mL cortisone acetate (Sigma, St. Louis, Mo.) in a solution of 95% ethanol and water and subsequently air dried under sterile conditions. FGF2 (Life Technologies, Gaithersburg, Md.) was used to grow vessels on the CAMs of 10 day old chick embryos. Sterile filter disks adsorbed with FGF2 dissolved in PBS at 1 μg/mL were placed on growing CAMs. Sterile filter disks adsorbed with FGF2 or sulfur- or selenium-containing compounds, and polymeric forms were dissolved in PBS at 1 μg/mL were placed on growing CAM. At 24 h, test compounds or control vehicle was added directly to CAM topically.
CAM tissue directly beneath FGF2-saturated filter disk was resected from embryos treated 48 hours prior with test compound or control. Tissues were washed three times with PBS. Sections were placed in a 35-mm petri dish (Nalge Nunc, Rochester, N.Y.) and examined under a SV6 stereomicroscope (Karl Zeiss, Thornwood, N.Y.) at 50× magnification. Digital images of CAM sections adjacent to filters were collected using a 3-CCD color video camera system (Toshiba America, New York, N.Y.) and analyzed using Image-Pro Plus software (Media Cybernetics, Silver Spring, Md.).
Statistical Analysis: Statistical analysis was performed by 1-way ANOVA comparing experimental with control samples.

endothelial cells = assay: Inhibition of Endothelial Cell Tube Formation (Matrigel, FGF2-stimulated); format: cell-based, Human; conditions: for inhibition at 3 µM: Homo sapiens, Endothelial cell, read-out: Man % Inhibition +/− SD
Procedure: Differentiation by endothelial cells was examined using a method developed by Grant et al. (Grant et al., In Vitro Cell Dev. Biol., 27A:327-336 (1991), which is hereby incorporated by reference in its entirety). Matrigel® matrix, phenol-red free (commercially available from Becton Dickinson, Bedford, Mass.) was thawed overnight at 4° C. Using cold pipette tips, 3.0 mg/well of Matrigel® matrix was placed M a cold twenty-four-multi-well plate (Falcon). Matrigel® matrix was allowed to polymerize during incubation at 37° C. for 30 minutes.

[2] = FGF2 + analog, all compounds tested at 3 μM, n = 3

Row | Molecule | inhibition at 10 µM [1] [%] | Length(mm) ± SEM (endothelial cells; [2]) [mm] | inhibition at 3 µM (endothelial cells; [2]) [%] | Branch Points ± SEM ([1]; FGF2 alone, 1.0 ug/ml) | Length(mm) ± SEM (endothelial cells; FGF2 alone (stimulated control)) [mm] | Branch Points ± SEM ([1]; FGF2 (1.0 ug/ml) + analog) | % inhibition ± SEM ([1]; FGF2 (1.0 ug/ml) + analog) [%]
1 | C[Se](=O)(=O)c1ccccc1 [Example 16] | 23.8 ± 4.9 | 28.78 ± 0.88 | 46.5 ± 3.2 | – | – | – | –
2 | FGF2: growth factor used to grow vessels on the CAMs; pro-angiogenic stimulus [reference compound] | – | – | – | 180.33 ± 8.58 and 193 ± 11 and 173 ± 7.5 | 43.82 ± 3.2 | – | –
3 | CC[Se](=O)(=O)CC [Example 17] | 39.9 ± 7.3 | 30.98 ± 2.43 | 38.6 ± 8.7 | – | – | 146 ± 8.5 | 40 ± 7
4 | O=S1(=O)CC=CC1 [Example 4] | 62.6 ± 9.21 | 25.25 ± 0.66 | 62.5 ± 2.24 | – | – | 131.57 ± 11.55 | –
5 | C[Se](=O)c1ccccc1 (stereo not drawn) [Example 18] | 39 | 28.22 ± 0.92 | 48.5 ± 3.3 | – | – | 165 ± 5.7 | 23.8 ± 4.9
6 | CS(=O)(=O)C(Cl)(Cl)Cl [Example 9] | 51 ± 9.36 | 21.95 ± 3.1 | 73.5 ± 10.5 | – | – | 135.83 ± 8.17 | –
7 | CCCCS(=O)(=O)CCCC [Example 3] | 47.2 ± 11.4 | 25.41 ± 1.1 | 61.9 ± 3.57 | – | – | 150.88 ± 14.31 | –
8 | CCS(=O)(=O)CC [Example 19] | 53 ± 15 | 28.46 ± 25.7 | 47.6 ± 9.2 | – | – | 131 ± 17 | –
9 | O=S1(=O)C=CC1 [Example 1] | 48.9 ± 7 | 20.64 ± 0.68 | 77.9 ± 2.28 | – | – | 149 ± 8.9 | –
10 | O=S(=O)(c1ccccc1)c1ccccc1 [Example 15] | 25 ± 13 | 23.43 ± 2.5 | 65.6 ± 8.9 | – | – | 163 ± 15 | –
11 | CS(=O)(=O)CS(C)(=O)=O [Example 12] | 40.6 ± 10.5 | 31.47 ± 1.5 | 41.5 ± 4.93 | – | – | 144.83 ± 9.19 | –
12 | O=[Se](=O)(c1ccccc1)c1ccccc1 [Example 14] | 41.4 ± 4.5 | 31.91 ± 1.8 | 40.1 ± 6.12 | – | – | 143.5 ± 4.7 | –
13 | CS(=O)(=O)c1ccccc1 [Example 5] | 37 | 28.81 ± 1.0 | 50.5 ± 3.48 | – | – | 140 ± 5.2 | 37 ± 5.9
14 | O=C(O)C[Se](=O)(=O)CC(=O)O [Example 20] | 36.3 ± 12.6 | 25.11 ± 3.1 | 62.9 ± 10.5 | – | – | 148.67 ± 11.02 | –
15 | O=S1(=O)CCCC1 [Example 2] | 55 ± 8.53 | 24.03 ± 0.85 | 66.5 ± 2.87 | – | – | 141.0 ± 10.69 | –
16 | O=S1(=O)CC2(C1)CS(=O)(=O)C2 [Example 13] | 24.7 ± 4.3 | 34.61 ± 0.24 | 31 ± 0.8 | – | – | 164 ± 5 | 24 ± 4.3
17 | CSCS(C)(=O)=O [Example 6] | 25.6 ± 8.1 | 22.91 ± 1.70 | 70.3 ± 5.71 | – | – | 158.0 ± 7.08 | –
